Several values for one entry are separate records, joined by “and”; a condition that tells them apart may be missing. Equal entries are not always repeated. Where two headings read alike, the source gives them in different places.
Legend:
[1] = Mouse PK study: blood AUC of compound A1 after oral or intravenous administration; format: in vivo; conditions: ICR mice, equimolar dose
Method: A total 126 ICR mice (male, 30-34 g) were randomly divided into 42 groups with 3 animals/group (oral or intravenous administration). Blood samples were collected at 0.167, 0.5, 1, 2, 4, 6, 8, and 24 hours post-dose for oral group and 0.083, 0.25, 0.5, 1, 2, 4, 6, and 8 hours post-dose for intravenous group. The test compounds were dissolved into vehicle solutions (5% DMSO+5% Solutol+90% 20% SBE-β-CD solvents).
Animals were administered with compound A1 or exemplary test compounds by intravenous bolus administration at 3 mg/kg (equimolar dose to compound A1) and oral administration at 10 mg/kg (equimolar dose to compound A1) after fasted 12 hours, respectively. Post-dose blood samples were collected at preset time point (50 μL/animal/time point), and 20 μL blood was accurately separated into 200 μL eppendorf (EP) tube containing acetonitrile and internal standard. The supernatant was prepared by centrifuging the blood samples at approximately 4° C., 12000 rpm for 5 minutes. All samples were then quickly frozen over dry ice and kept at −60° C. or lower until analysis. The supernatant was analyzed by LC-MS/MS to detect the concentration of test compounds and metabolites.

[2] = test system: AsPC-1 pancreatic cancer cells; test: Efficacy study in mouse AsPC-1 CDX model, compounds given orally; format: in vivo, Balb/C nude mice; conditions: BID; for effect on mouse body weight: given orally; for TGI (%): oral, Compound A1 100 mg/kg for 12 days, Compound 1 126 mg/kg (molar equivalent) for 16 days
Method: (§1) Balb/C nude mice, aged 6-8 weeks, were inoculated subcutaneously with 5×10^6 AsPC-1 pancreatic cancer cells, in 0.1 ml PBS. Eleven days post-inoculation, tumor bearing animals were randomized into Vehicle (four mice), Compound A1 (four mice) and Compound 1 (five mice), followed by oral dosing twice daily at 100 mg/kg for Compound A1 and 126 mg/kg for Compound 1 (Table 6). Tumor volume was measured every three days using a caliper, and tumor size was calculated using the formula TV=length×width^2×0.5. Tumor growth inhibition (TGI) was calculated using the given formula TGI=[1−(Vtx_t−Vtx_0)/(Vct_t−Vct_0)]×100%, where Vtx_t means tumor volume in treatment group measured at time point t, Vtx_0 means tumor volume of treatment group measured at time point 0, Vct_t means tumor volume of vehicle group measured at time point t, and Vct_0 means tumor volume of vehicle group measured at time point 0.

[3] = test system: GP2D colonrectal cancer cells; format: in vivo; conditions: for TGI (%): 21 days
Method: After Balb/C nude mice (aged 6-8 weeks) were inoculated subcutaneously with 5×10^6 GP2D colonrectal cancer cells, in 0.1 ml PBS, they were grouped 11 days post-inoculation and treated with intraperitoneal injections of the given compounds for 21 days. Note that Compound 52 at 40.3 mg/kg and Compound 53 at 43 mg/kg are molar equivalent to 18 mg/kg of Compound A1. Tumor volume and TGI were measured and calculated as described before (Table 8).
Balb/C nude mice, aged 6-8 weeks, were inoculated subcutaneously with 5×10^6 GP2D colonrectal cancer cells, in 0.1 ml PBS. Eleven days post the inoculation, tumor bearing animals were randomly grouped based on given compounds and vehicle. Compound A1, as positive control, was IP administered at 18 mg/kg qd for 21 days. Compound 52 at 40.3 mg/kg (molar equivalent to 18 mg/kg of Compound A1) was IV administered q3d, and subsequently switched to 27 mg/kg for 21 days. Compound 53 at 43 mg/kg (molar equivalent to 18 mg/kg of Compound A1) was either IV or IP dosed q3d for 21 days (Table 8).

AsPC-1 cells = test: Tumor growth inhibition in mouse AsPC-1 CDX model, compounds given parenterally (IP/IV); format: in vivo; conditions: for TGI (%): 27 days; for tumor growth inhibition compared to vehicle control: FIG. 6
Method: as §1
Balb/C nude mice bearing tumors derived from AsPC-1 cells as described previously, were grouped into Vehicle intraperitoneal (IP) (five mice), Compound A1 IP (five mice), Compound A1 intravenous (IV) (three mice), Compound 52 IP (five mice) and Compound 52 IV injections (six mice). All compounds were administered once daily at equal molarity (Compound A1, 6 mg/kg) for 27 days. Tumor volume was measured and calculated as described previously.

[4] = IP, qd, Compound A1 18 mg/kg, Compound 52 40.3 mg/kg (molar equivalent)
[5] = IP, qd, Compound A1 6 mg/kg, Compound 52 13.44 mg/kg (molar equivalent)

SMILES	effect on mouse body weight [2]	TGI (%) [2]	TGI (%) [3, 4] [%]	TGI (%) (AsPC-1 cells; [5])	tumor growth inhibition compared to vehicle control (AsPC-1 cells; intraperitoneal administration)	also measured
C#Cc1c(F)ccc2cc(O)cc(-c3ncc4c(N5CC6CCC(C5)N6C(=O)OC(C)OC(=O)CC(C)C)nc(OC[C@@]56CCCN5C[C@H](F)C6)nc4c3F)c12 (stereo partly drawn) [Compound 10]						AUC of A1 increased compared to direct oral administration of A1 [1]: more than 8.5 times
C#Cc1c(F)ccc2cc(O)cc(-c3ncc4c(N5CC6CCC(C5)N6C(=O)OC(C)OC(=O)CCC)nc(OC[C@@]56CCCN5C[C@H](F)C6)nc4c3F)c12 (stereo partly drawn) [Compound 1]	Neither Compound 1 nor A1 adversely affected mouse body weight	53.5% and 53.95%				
C#Cc1c(F)ccc2cc(OC(=O)OC(COC(=O)CCCCCCCC)COC(=O)CCCCCCCC)cc(-c3ncc4c(N5CC6CCC(C5)N6)nc(OC[C@@]56CCCN5C[C@H](F)C6)nc4c3F)c12 [Compound 52]			87.1	36.12	significant tumor growth inhibition	body weight of mice ([3]; IV 27 mg/kg once every 3 days): remained normal; TGI (%) ([3]; IV, q3d, 27 mg/kg (molar equivalent to 12 mg/kg A1)): 80.0%; death of recipient animals ([3]; intravenously dosed at 40.3 mg/kg (molar equivalent to 18 mg/kg A1)): 50%; growth inhibition of tumors harboring the KRAS^G12D mutation ([3]; parenterally administered with the dosages of Table 8): significant growth inhibition; TGI (%) (AsPC-1 cells; IV, qd, Compound 52 13.44 mg/kg (molar equivalent to 6 mg/kg A1)): 47.22%; tumor growth inhibition compared to vehicle control (AsPC-1 cells; intravenous injection): significant tumor growth inhibition
C#Cc1c(F)ccc2cc(O)cc(-c3ncc4c(N5CC6CCC(C5)N6)nc(OC[C@@]56CCCN5C[C@H](F)C6)nc4c3F)c12 [Compound A1, reference compound]	Neither Compound 1 nor A1 adversely affected mouse body weight	9.07%	85.0	37.27	significant tumor growth inhibition	animal death observed (footnote D in TGI column) (AsPC-1 cells; IV, qd, Compound A1 6 mg/kg, 3 mice): caused the death of all mice within 24 hours
